# Laboratory results reported in PMC11012124, “Synthesis of Novel Triazine-Based Chalcones and 8,9-dihydro-7H-pyrimido[4,5-b][1,4]diazepines as Potential Leads in the Search of Anticancer, Antibacterial and Antifungal Agents” (International Journal of Molecular Sciences, 2024).
# Key:
# 60 cancer cell lines = assay: NCI-60 one-dose screen (10 μM); format: cell-based; conditions: Homo sapiens; one dose of 10 μM, mean over 60 cancer cell lines; read-out: Mean Growth Percent (MGP)
# From the text: Additionally, the mean of the growth percentages (MGP) of each compound against all the 60 cancer cell lines is also reported, which is used as one of the selection criteria to continue with tests at five concentration doses.
# [1] = Hemolytic activity, spectrophotometric; format: cell-based, human; conditions: human, human red blood cells (huRBC), 5% hematocrit, 200 μg/mL, 37 °C
# CCRF-CEM = assay: cells; conditions: Homo sapiens, 48 h; for CC50: read-out: LC50
# HL-60(TB) = assay: cells; conditions: Homo sapiens, HL-60, 48 h; for CC50: read-out: LC50
# MOLT-4 = assay: cells; conditions: Homo sapiens, MOLT-4, 48 h; for CC50: read-out: LC50
# RPMI-8226 = assay: cells; conditions: Homo sapiens, RPMI-8226, 48 h; for CC50: read-out: LC50
# EKVX = assay: cells; conditions: Homo sapiens, 48 h; for CC50: read-out: LC50
# HOP-62 = assay: cells; conditions: Homo sapiens, HOP-62, 48 h; for CC50: read-out: LC50
# NCI-H226 = assay: cells; conditions: Homo sapiens, NCI-H226, 48 h; for CC50: read-out: LC50
# NCI-H322M = assay: cells; conditions: Homo sapiens, 48 h; for CC50: read-out: LC50
# COLO 205 = assay: cells; conditions: Homo sapiens, COLO 205, 48 h; for CC50: read-out: LC50
# HCT-116 = assay: cells; conditions: Homo sapiens, HCT-116, 48 h; for CC50: read-out: LC50
# HT29 = assay: cells; conditions: Homo sapiens, HT-29, 48 h; for CC50: read-out: LC50
# SF-268 = assay: cells; conditions: Homo sapiens, SF-268, 48 h; for CC50: read-out: LC50
# SF-295 = assay: cells; conditions: Homo sapiens, SF-295, 48 h; for CC50: read-out: LC50
# SF-539 = assay: cells; conditions: Homo sapiens, SF-539, 48 h; for CC50: read-out: LC50, SF-539, 48 h
# U251 = assay: cells; conditions: Homo sapiens, U-251, 48 h; for GI50: U251, 48 h; for CC50: read-out: LC50
# LOX IMVI = assay: cells; conditions: Homo sapiens, 48 h; for CC50: read-out: LC50, LOX IMVI, 48 h
# MALME-3M = assay: cells; conditions: Homo sapiens, 48 h; for CC50: read-out: LC50
# M14 = assay: cells; conditions: Homo sapiens, M14, 48 h; for CC50: read-out: LC50
# MDA-MB-435 = assay: cells; conditions: Homo sapiens, MDA-MB-435, 48 h; for CC50: read-out: LC50
# UACC-257 = assay: cells; conditions: Homo sapiens, UACC-257, 48 h; for CC50: read-out: LC50
# UACC-62 = assay: cells; conditions: Homo sapiens, UACC-62, 48 h; for CC50: read-out: LC50
# OVCAR-3 = assay: cells; conditions: Homo sapiens, OVCAR-3, 48 h; for CC50: read-out: LC50
# OVCAR-4 = assay: cells; conditions: Homo sapiens, OVCAR-4, 48 h; for CC50: read-out: LC50
# OVCAR-5 = assay: cells; conditions: Homo sapiens, OVCAR-5, 48 h; for CC50: read-out: LC50
# OVCAR-8 = assay: cells; conditions: Homo sapiens, OVCAR-8, 48 h; for CC50: read-out: LC50
# A498 = assay: cells; conditions: Homo sapiens, A498, 48 h; for CC50: read-out: LC50
# ACHN = assay: cells; conditions: Homo sapiens, 48 h; for CC50: read-out: LC50
# SN12C = assay: cells; conditions: Homo sapiens, 48 h; for CC50: read-out: LC50
# UO-31 = assay: cells; conditions: Homo sapiens, UO-31, 48 h; for CC50: read-out: LC50
# PC-3 = assay: cells; conditions: Homo sapiens, PC-3, 48 h; for CC50: read-out: LC50
# DU-145 = assay: cells; conditions: Homo sapiens, DU-145, 48 h; for CC50: read-out: LC50
# MCF7 = assay: cells; conditions: Homo sapiens, MCF7, 48 h; for CC50: read-out: LC50
# MDA-MB-231/ATCC = assay: cells; conditions: Homo sapiens, MDA-MB-231, 48 h; for CC50: read-out: LC50
# HS 578T = assay: cells; conditions: Homo sapiens, 48 h; for CC50: read-out: LC50
# BT-549 = assay: cells; conditions: Homo sapiens, BT-549, 48 h; for CC50: read-out: LC50
# T-47D = assay: cells; conditions: Homo sapiens, T47D, 48 h; for CC50: read-out: LC50
smiles,measurement,setting,value
CN(C)c1nc(NCCNS(=O)(=O)c2ccc(C(=O)/C=C/c3ccccc3)cc2)nc(Nc2ccc(F)cc2)n1 [24a],activity at 10 µM,60 cancer cell lines,13.6%
same,"hemolysis at 24 h, 200 µg/mL",[1],10.6%
same,GI50,CCRF-CEM,6.59 µM
same,CC50,CCRF-CEM,> 100 µM
same,GI50,HL-60(TB),3.88 µM
same,CC50,HL-60(TB),> 100 µM
same,GI50,MOLT-4,3.22 µM
same,CC50,MOLT-4,> 100 µM
same,GI50,RPMI-8226,3.04 µM
same,CC50,RPMI-8226,> 100 µM
same,GI50,EKVX,4.48 µM
same,CC50,EKVX,40.6 µM
same,GI50,HOP-62,11.8 µM
same,CC50,HOP-62,60.6 µM
same,GI50,NCI-H226,5.22 µM
same,CC50,NCI-H226,57.3 µM
same,GI50,NCI-H322M,9.83 µM
same,CC50,NCI-H322M,76.9 µM
same,GI50,COLO 205,5.46 µM
same,CC50,COLO 205,56.7 µM
same,GI50,HCT-116,1.72 µM
same,CC50,HCT-116,6.1 µM
same,GI50,HT29,3.08 µM
same,CC50,HT29,73.5 µM
same,GI50,SF-268,5.65 µM
same,CC50,SF-268,65.2 µM
same,GI50,SF-295,6.96 µM
same,CC50,SF-295,44.5 µM
same,GI50,SF-539,12 µM
same,CC50,SF-539,50.2 µM
same,GI50,U251,10.4 µM
same,CC50,U251,57.8 µM
same,GI50,LOX IMVI,2.47 µM
same,CC50,LOX IMVI,27.4 µM
same,GI50,MALME-3M,12.6 µM
same,CC50,MALME-3M,54.5 µM
same,GI50,M14,5.98 µM
same,CC50,M14,51.5 µM
same,GI50,MDA-MB-435,7.44 µM
same,CC50,MDA-MB-435,59.8 µM
same,GI50,UACC-257,12.6 µM
same,CC50,UACC-257,61 µM
same,GI50,UACC-62,6.68 µM
same,CC50,UACC-62,46.9 µM
same,GI50,OVCAR-3,8.59 µM
same,CC50,OVCAR-3,48.7 µM
same,GI50,OVCAR-4,4.39 µM
same,CC50,OVCAR-4,99.3 µM
same,GI50,OVCAR-5,13.3 µM
same,CC50,OVCAR-5,53.2 µM
same,GI50,OVCAR-8,12.2 µM
same,CC50,OVCAR-8,57.1 µM
same,GI50,A498,11.6 µM
same,CC50,A498,49.7 µM
same,GI50,ACHN,4.92 µM
same,CC50,ACHN,43.5 µM
same,GI50,SN12C,8.2 µM
same,CC50,SN12C,46.2 µM
same,GI50,UO-31,4.6 µM
same,CC50,UO-31,41.9 µM
same,GI50,PC-3,4.39 µM
same,CC50,PC-3,> 100 µM
same,GI50,DU-145,12.1 µM
same,CC50,DU-145,53.2 µM
same,GI50,MCF7,1.99 µM
same,CC50,MCF7,8.23 µM
same,GI50,MDA-MB-231/ATCC,4.84 µM
same,CC50,MDA-MB-231/ATCC,45.8 µM
same,GI50,HS 578T,7.39 µM
same,CC50,HS 578T,> 100 µM
same,GI50,BT-549,13.9 µM
same,CC50,BT-549,54.3 µM
same,GI50,T-47D,3.45 µM
same,CC50,T-47D,41.7 µM
CN(C)c1nc(NCCNS(=O)(=O)c2ccc(C(=O)/C=C/c3ccc(F)cc3)cc2)nc(Nc2ccc(F)cc2)n1 [24f],activity at 10 µM,60 cancer cell lines,-70.5%
same,"hemolysis at 24 h, 200 µg/mL",[1],9.9%
same,GI50,CCRF-CEM,3.42 µM
same,CC50,CCRF-CEM,> 100 µM
same,GI50,HL-60(TB),2.04 µM
same,CC50,HL-60(TB),6.34 µM
same,GI50,MOLT-4,2.5 µM
same,CC50,MOLT-4,6.49 µM
same,GI50,RPMI-8226,2.42 µM
same,CC50,RPMI-8226,6.92 µM
same,GI50,EKVX,2.95 µM
same,CC50,EKVX,10.9 µM
same,GI50,HOP-62,8.39 µM
same,CC50,HOP-62,23.5 µM
same,GI50,NCI-H226,3.41 µM
same,CC50,NCI-H226,16.4 µM
same,GI50,NCI-H322M,4.24 µM
same,CC50,NCI-H322M,17.8 µM
same,GI50,COLO 205,2.38 µM
same,CC50,COLO 205,6.56 µM
same,GI50,HCT-116,1.6 µM
same,CC50,HCT-116,3.01 µM
same,GI50,HT29,1.9 µM
same,CC50,HT29,3.65 µM
same,GI50,SF-268,3.89 µM
same,CC50,SF-268,16.4 µM
same,GI50,SF-295,3.4 µM
same,CC50,SF-295,13 µM
same,GI50,SF-539,2.52 µM
same,CC50,SF-539,6.78 µM
same,GI50,U251,1.99 µM
same,CC50,U251,4.41 µM
same,GI50,LOX IMVI,1.66 µM
same,CC50,LOX IMVI,3.07 µM
same,GI50,MALME-3M,3.42 µM
same,CC50,MALME-3M,12.4 µM
same,GI50,M14,2.6 µM
same,CC50,M14,8.28 µM
same,GI50,MDA-MB-435,2.32 µM
same,CC50,MDA-MB-435,5.69 µM
same,GI50,UACC-257,3.61 µM
same,CC50,UACC-257,15.2 µM
same,GI50,UACC-62,3.57 µM
same,CC50,UACC-62,14.6 µM
same,GI50,OVCAR-3,1.74 µM
same,CC50,OVCAR-3,3.24 µM
same,GI50,OVCAR-4,3.68 µM
same,CC50,OVCAR-4,15.6 µM
same,GI50,OVCAR-5,3.39 µM
same,CC50,OVCAR-5,15 µM
same,GI50,OVCAR-8,3.42 µM
same,CC50,OVCAR-8,13.9 µM
same,GI50,A498,6.21 µM
same,CC50,A498,19.3 µM
same,GI50,ACHN,3.13 µM
same,CC50,ACHN,10.9 µM
same,GI50,SN12C,1.7 µM
same,CC50,SN12C,3.36 µM
same,GI50,UO-31,2.9 µM
same,CC50,UO-31,11.9 µM
same,GI50,PC-3,2.76 µM
same,CC50,PC-3,10.6 µM
same,GI50,DU-145,3.94 µM
same,CC50,DU-145,14 µM
same,GI50,MCF7,1.8 µM
same,CC50,MCF7,3.46 µM
same,GI50,MDA-MB-231/ATCC,2.64 µM
same,CC50,MDA-MB-231/ATCC,8.39 µM
same,GI50,HS 578T,6.3 µM
same,CC50,HS 578T,71.5 µM
same,GI50,BT-549,4.87 µM
same,CC50,BT-549,17.1 µM
same,GI50,T-47D,3.02 µM
same,CC50,T-47D,11.7 µM
